In patent publication US20160242416A1, “FUNGICIDAL ISOXAZOLINE CARBINOLS” (E I DU PONT DE NEMOURS AND COMPANY, priority 2015, published 2016):

Legend:
Botrytis cinerea = experiment: Test B: gray mold, preventive spray on tomato seedlings; details: 100 = 100% disease control; for Test B rating (% disease control): 10 ppm, gray mold on tomato, 0 = no control; for Test B disease control rating: 10 ppm test solution, 0 = no control relative to controls
[1] = test system: Puccinia recondita f sp. tritici; experiment: Test F: wheat leaf rust, preventive spray on wheat seedlings; details: 100 = 100% disease control; for Test F rating (% disease control): 10 ppm, wheat leaf rust, 0 = no control; for Test F disease control rating: 10 ppm test solution, 0 = no control relative to controls
Zymoseptoria tritici = experiment: Test E: wheat leaf blotch, preventive spray on wheat seedlings; details: 100 = 100% disease control; for Test E rating (% disease control): 10 ppm, wheat leaf blotch, 0 = no control; for Test E disease control rating: 10 ppm test solution, 0 = no control relative to controls
Stagonospora nodorum = experiment: Test D: wheat glume blotch, preventive spray on wheat seedlings; details: 100 = 100% disease control; for Test D rating (% disease control): 10 ppm, wheat glume blotch, 0 = no control; for Test D disease control rating: 10 ppm test solution, 0 = no control relative to controls
[2] = test system: Erysiphe graminis f sp. tritici; experiment: Test G: wheat powdery mildew, preventive spray on wheat seedlings; details: 100 = 100% disease control; for Test G rating (% disease control): 10 ppm, wheat powdery mildew, 0 = no control; for Test G disease control rating: 10 ppm test solution, 0 = no control relative to controls

With `OC(Cn1cncn1)(C1=NOC(Cc2ccccc2)C1)c1ccc(Cl)cc1` (single isomer, unassigned) [Compound 137] the “Test B rating (% disease control)” value (Botrytis cinerea) was 0%, the “Test F rating (% disease control)” value [1] was 99% and the “Test E rating (% disease control)” value (Zymoseptoria tritici) was 26%. For the same molecule, the “Test D rating (% disease control)” value (Stagonospora nodorum) was 77% and the “Test G rating (% disease control)” value [2] was 99%.

With `CC(C)(C)CC1CC(C(O)(Cn2cncn2)c2ccc(Cl)cc2)=NO1` (single isomer, unassigned) [Compound 76] the “Test B rating (% disease control)” value (Botrytis cinerea) was 0%, the “Test F rating (% disease control)” value [1] was 0% and the “Test E rating (% disease control)” value (Zymoseptoria tritici) was 0%. For the same molecule, the “Test D rating (% disease control)” value (Stagonospora nodorum) was 0% and the “Test G rating (% disease control)” value [2] was 89%.

`CC(C)(C)C(O)(Cn1cncn1)C1=NOC(COc2cccc(Cl)c2)C1` (single isomer, unassigned) [Compound 230] was tested, and the “Test B disease control rating” value (Botrytis cinerea) was 99%, the “Test F disease control rating” value [1] was 100% and the “Test E disease control rating” value (Zymoseptoria tritici) was 8%. The “Test D disease control rating” value (Stagonospora nodorum) was 100% and the “Test G disease control rating” value [2] was 99%.

`CC(C)(C)C(O)(Cn1cncn1)C1=NOC(c2ccc(-n3cc(Br)cn3)cc2)C1` (single isomer, unassigned) [Compound 8] was tested, and the “Test B rating (% disease control)” value (Botrytis cinerea) was 0%, the “Test F rating (% disease control)” value [1] was 0% and the “Test E rating (% disease control)” value (Zymoseptoria tritici) was 0%. The “Test D rating (% disease control)” value (Stagonospora nodorum) was 0% and the “Test G rating (% disease control)” value [2] was 100%.

With `CC(C)(C)CC(O)(Cn1cncn1)C1=NOC(COc2ccc(Cl)cc2)C1` (single isomer, unassigned) [Compound 173] the “Test B rating (% disease control)” value (Botrytis cinerea) was 0%, the “Test F rating (% disease control)” value [1] was 100% and the “Test E rating (% disease control)” value (Zymoseptoria tritici) was 6%. For the same molecule, the “Test D rating (% disease control)” value (Stagonospora nodorum) was 63% and the “Test G rating (% disease control)” value [2] was 97%.

`CCC(C)(C)C(O)(Cn1cncn1)C1=NOC(Cc2ccc(Cl)cc2)C1` (single isomer, unassigned) [Compound 18] was tested, and the “Test B rating (% disease control)” value (Botrytis cinerea) was 0%, the “Test F rating (% disease control)” value [1] was 100% and the “Test E rating (% disease control)” value (Zymoseptoria tritici) was 6%. For the same molecule, the “Test D rating (% disease control)” value (Stagonospora nodorum) was 87% and the “Test G rating (% disease control)” value [2] was 99%.

`OC(Cn1cncn1)(C1=NOC2c3ccccc3CCC12)c1ccc(Cl)cc1` (centres unmarked) [Compound 222] was tested, and the “Test B disease control rating” value (Botrytis cinerea) was 9%, the “Test F disease control rating” value [1] was 100% and the “Test E disease control rating” value (Zymoseptoria tritici) was 23%. The “Test D disease control rating” value (Stagonospora nodorum) was 50% and the “Test G disease control rating” value [2] was 99%.

For `CC(C)(C)C(O)(Cn1cncn1)C1=NOC(COc2ccc(Cl)cn2)C1` (single isomer, unassigned) [Compound 95], the “Test B rating (% disease control)” value (Botrytis cinerea) was 100%, the “Test F rating (% disease control)” value [1] was 100% and the “Test E rating (% disease control)” value (Zymoseptoria tritici) was 0%. The “Test D rating (% disease control)” value (Stagonospora nodorum) was 100% and the “Test G rating (% disease control)” value [2] was 100%.

In the case of `OC(Cn1cncn1)(C1=NOC(c2ccc(Cl)cc2)C1)c1ccc(Cl)cc1Cl` (single isomer, unassigned) [Compound 140], the “Test B rating (% disease control)” value (Botrytis cinerea) is reported as 0%, the “Test F rating (% disease control)” value [1] is reported as 100% and the “Test E rating (% disease control)” value (Zymoseptoria tritici) is reported as 67%. For the same molecule, the “Test D rating (% disease control)” value (Stagonospora nodorum) was 82% and the “Test G rating (% disease control)” value [2] was 99%.

For `OC(Cn1cncn1)(C1=NOC(c2ccc(Cl)cc2)C1)c1ccc(Cl)cc1Cl` (single isomer, unassigned) [Compound 141], the “Test B rating (% disease control)” value (Botrytis cinerea) was 0%, the “Test F rating (% disease control)” value [1] was 99% and the “Test E rating (% disease control)” value (Zymoseptoria tritici) was 1%. The “Test D rating (% disease control)” value (Stagonospora nodorum) was 0% and the “Test G rating (% disease control)” value [2] was 84%.

`OC(Cn1cncn1)(C1=NOC(c2ccc(Cl)cc2)C1)c1ccccc1Cl` (single isomer, unassigned) [Compound 151] was tested, and the “Test B rating (% disease control)” value (Botrytis cinerea) was 0%, the “Test F rating (% disease control)” value [1] was 84% and the “Test E rating (% disease control)” value (Zymoseptoria tritici) was 76%. The “Test D rating (% disease control)” value (Stagonospora nodorum) was 0% and the “Test G rating (% disease control)” value [2] was 90%.

For `OC(Cn1cncn1)(C1=NOC(c2ccc(Cl)cc2)C1)c1ccc(C(F)(F)F)cc1` (single isomer, unassigned) [Compound 105], the “Test B rating (% disease control)” value (Botrytis cinerea) was 0%, the “Test F rating (% disease control)” value [1] was 100% and the “Test E rating (% disease control)” value (Zymoseptoria tritici) was 8%. For the same molecule, the “Test D rating (% disease control)” value (Stagonospora nodorum) was 96% and the “Test G rating (% disease control)” value [2] was 99%.

`CC(C)(C)C(O)(Cn1cncn1)C1=NOC(COc2ccc(C(F)(F)F)cc2)C1` (single isomer, unassigned) [Compound 81] was tested, and the “Test B rating (% disease control)” value (Botrytis cinerea) was 57%, the “Test F rating (% disease control)” value [1] was 100% and the “Test E rating (% disease control)” value (Zymoseptoria tritici) was 95%. The “Test D rating (% disease control)” value (Stagonospora nodorum) was 100% and the “Test G rating (% disease control)” value [2] was 100%.

`OC(Cn1cncn1)(C1=NOC(Cn2cc(Br)cn2)C1)c1ccc(Cl)cc1` (single isomer, unassigned) [Compound 38] was tested, and the “Test B rating (% disease control)” value (Botrytis cinerea) was 0%, the “Test F rating (% disease control)” value [1] was 55% and the “Test E rating (% disease control)” value (Zymoseptoria tritici) was 1%. The “Test D rating (% disease control)” value (Stagonospora nodorum) was 0% and the “Test G rating (% disease control)” value [2] was 72%.

In the case of `OC(Cn1cncn1)(C1=NOC(c2ccc(Cl)cc2)C1)c1ccc(Br)cc1` (single isomer, unassigned) [Compound 180], the “Test B rating (% disease control)” value (Botrytis cinerea) is reported as 0%, the “Test F rating (% disease control)” value [1] is reported as 100% and the “Test E rating (% disease control)” value (Zymoseptoria tritici) is reported as 1%. The “Test D rating (% disease control)” value (Stagonospora nodorum) was 99% and the “Test G rating (% disease control)” value [2] was 100%.

With `CC(C)(C)C(O)(Cn1cncn1)C1=NOC(Cc2ccc(Cl)c(Cl)c2)C1` (single isomer, unassigned) [Compound 22] the “Test B rating (% disease control)” value (Botrytis cinerea) was 0%, the “Test F rating (% disease control)” value [1] was 100% and the “Test E rating (% disease control)” value (Zymoseptoria tritici) was 29%. For the same molecule, the “Test D rating (% disease control)” value (Stagonospora nodorum) was 96% and the “Test G rating (% disease control)” value [2] was 99%.

With `CC(C)(C)C(O)(Cn1cncn1)C1=NOC(COc2ccc(-n3cc(Br)cn3)cc2)C1` (centres unmarked) [Compound 30] the “Test B rating (% disease control)” value (Botrytis cinerea) was 99%, the “Test F rating (% disease control)” value [1] was 79% and the “Test E rating (% disease control)” value (Zymoseptoria tritici) was 0%. The “Test D rating (% disease control)” value (Stagonospora nodorum) was 0% and the “Test G rating (% disease control)” value [2] was 100%.

With `OC(Cn1cncn1)(C1=NOC(c2ccc(Oc3ccccc3)cc2)C1)c1ccc(Cl)cc1` (single isomer, unassigned) [Compound 142] the “Test B rating (% disease control)” value (Botrytis cinerea) was 0%, the “Test F rating (% disease control)” value [1] was 100% and the “Test E rating (% disease control)” value (Zymoseptoria tritici) was 91%. The “Test D rating (% disease control)” value (Stagonospora nodorum) was 86% and the “Test G rating (% disease control)” value [2] was 99%.

For `OC(Cn1cncn1)(C1=NOC(COc2ccc(OCc3ccccc3)cc2)C1)c1ccc(Cl)cc1` (single isomer, unassigned) [Compound 69], the “Test B rating (% disease control)” value (Botrytis cinerea) was 27%, the “Test F rating (% disease control)” value [1] was 100% and the “Test E rating (% disease control)” value (Zymoseptoria tritici) was 25%. The “Test D rating (% disease control)” value (Stagonospora nodorum) was 38% and the “Test G rating (% disease control)” value [2] was 94%.

In the case of `CCCCC(O)(Cn1cncn1)C1=NOC(c2ccc(Cl)cc2)C1` (single isomer, unassigned) [Compound 156], the “Test B rating (% disease control)” value (Botrytis cinerea) is reported as 0%, the “Test F rating (% disease control)” value [1] is reported as 100% and the “Test E rating (% disease control)” value (Zymoseptoria tritici) is reported as 19%. The “Test D rating (% disease control)” value (Stagonospora nodorum) was 98% and the “Test G rating (% disease control)” value [2] was 100%.

For `OC(Cn1cncn1)(C1=NOC(COCc2ccccc2)C1)c1ccc(Cl)cc1` (single isomer, unassigned) [Compound 58], the “Test B rating (% disease control)” value (Botrytis cinerea) was 0%, the “Test F rating (% disease control)” value [1] was 0% and the “Test E rating (% disease control)” value (Zymoseptoria tritici) was 0%. The “Test D rating (% disease control)” value (Stagonospora nodorum) was 0% and the “Test G rating (% disease control)” value [2] was 68%.

In the case of `CC(C)(C)C(O)(Cn1cncn1)C1=NOC(COc2ccc(F)cc2)C1` (single isomer, unassigned) [Compound 80], the “Test B rating (% disease control)” value (Botrytis cinerea) is reported as 82%, the “Test F rating (% disease control)” value [1] is reported as 100% and the “Test E rating (% disease control)” value (Zymoseptoria tritici) is reported as 1%. The “Test D rating (% disease control)” value (Stagonospora nodorum) was 100% and the “Test G rating (% disease control)” value [2] was 99%.

For `CC(C)(C)C(O)(Cn1cncn1)C1=NOC(COc2ccc(OCc3ccccc3)cc2)C1` (single isomer, unassigned) [Compound 72], the “Test B rating (% disease control)” value (Botrytis cinerea) was 19%, the “Test F rating (% disease control)” value [1] was 0% and the “Test E rating (% disease control)” value (Zymoseptoria tritici) was 0%. The “Test D rating (% disease control)” value (Stagonospora nodorum) was 0% and the “Test G rating (% disease control)” value [2] was 56%.

`CC(C)(C)CC(O)(Cn1cncn1)C1=NOC(c2ccc(Cl)cc2)C1` (single isomer, unassigned) [Compound 139] was tested, and the “Test B rating (% disease control)” value (Botrytis cinerea) was 0%, the “Test F rating (% disease control)” value [1] was 100% and the “Test E rating (% disease control)” value (Zymoseptoria tritici) was 6%. The “Test D rating (% disease control)” value (Stagonospora nodorum) was 99% and the “Test G rating (% disease control)” value [2] was 99%.

With `CC(C)(C)C(O)(Cn1cncn1)C1=NOC(c2cnccn2)C1` (single isomer, unassigned) [Compound 168] the “Test B rating (% disease control)” value (Botrytis cinerea) was 11%, the “Test F rating (% disease control)” value [1] was 0% and the “Test E rating (% disease control)” value (Zymoseptoria tritici) was 3%. For the same molecule, the “Test D rating (% disease control)” value (Stagonospora nodorum) was 0% and the “Test G rating (% disease control)” value [2] was 35%.

`Cn1nc(C(F)(F)F)cc1OCC1CC(C(O)(Cn2cncn2)C(C)(C)C)=NO1` (single isomer, unassigned) [Compound 56] was tested, and the “Test B rating (% disease control)” value (Botrytis cinerea) was 0%, the “Test F rating (% disease control)” value [1] was 97% and the “Test E rating (% disease control)” value (Zymoseptoria tritici) was 0%. The “Test D rating (% disease control)” value (Stagonospora nodorum) was 20% and the “Test G rating (% disease control)” value [2] was 94%.

In the case of `CC(C)(C)CC(O)(Cn1cncn1)C1=NOC(Cc2ccc(C(F)(F)F)cc2)C1` (single isomer, unassigned) [Compound 226], the “Test B disease control rating” value (Botrytis cinerea) is reported as 0%, the “Test F disease control rating” value [1] is reported as 100% and the “Test E disease control rating” value (Zymoseptoria tritici) is reported as 0%. For the same molecule, the “Test D disease control rating” value (Stagonospora nodorum) was 51% and the “Test G disease control rating” value [2] was 99%.

`CC(C)(C)C(O)(Cn1cncn1)C1=NOC(COc2ccc(Cl)cc2)C1` (stereo not drawn) [Compound 174, α-[5-[(4-chlorophenoxy)methyl]-4,5-dihydro-3-isoxazolyl]-α-(1,1-dimethylethyl)-1H-1,2,4-triazole-1-ethanol] was tested, and the “Test B rating (% disease control)” value (Botrytis cinerea) was 58%, the “Test F rating (% disease control)” value [1] was 100% and the “Test E rating (% disease control)” value (Zymoseptoria tritici) was 12%. For the same molecule, the “Test D rating (% disease control)” value (Stagonospora nodorum) was 100% and the “Test G rating (% disease control)” value [2] was 100%.
